The record followed here is ChEMBL document CHEMBL1121659 (J Med Chem, 1981).

Active and inactive are the calls of the source.

Series [1] has as its system Mus musculus. Briefly: Compound was evaluated for the dose required for protection against scMET-induced seizures after 4 hours of intraperitoneal administration; Inactive. Format: functional, organism-based.
Series [2] relates to Mus musculus. The series can be described thus: Compound was evaluated for the dose required for protection against MES-induced seizures after 4 hours of intraperitoneal administration; Inactive. Format: functional, organism-based.
The nature of series [3]: Compound was evaluated for the biliary excretion in the anesthetized rats in 6 hours after intravenous doses 1 mg/kg. It is filed as ADME, organism-based. Set-up: dose 1 mg/kg, route intravenous. The note with it: rat, bile, read-out: Excretion.
Series [4] is described as follows: Compound was evaluated for the biological half-life in rat after a dose of 10 mg/kg given intravenously. It is filed as ADME, organism-based. Set-up: dose 10 mg/kg, route intravenous. The following applies: in vivo, iv.
The subject of series [5] is Mus musculus. The series can be described thus: Compound was evaluated for the dose required for protection against scMET-induced seizures after 4 hours of intraperitoneal administration. Format: functional.
The nature of series [6]: Compound was evaluated for the biliary excretion in the anesthetized rats in 6 hours after intravenous doses 10 mg/kg. The note with it: rat, bile, read-out: Excretion. Set-up: dose 10 mg/kg, route intravenous. Format: ADME, organism-based.
The subject of series [7] is Mus musculus. Briefly: Compound was evaluated for the dose required for protection against MES-induced seizures after 4 hours of intraperitoneal administration. It is filed as functional.
In series [8] the test system is Mus musculus. The series can be described thus: Compound was evaluated for the biological half-life in mouse after a dose of 40 mg/kg given intraperitoneally. The following applies: in vivo, ip.
For series [9], the system named is Mus musculus. The series can be described thus: Compound was evaluated for the neuro toxicity up to 4 hours after doses of <=300 mg/kg administered intraperitoneally; No toxicity. The following applies: in vivo, ip. It is filed as organism-based.
In series [10] the test system is Mus musculus. Briefly: Compound was evaluated for the dose required for protection against scMET-induced seizures after 4 hours of intraperitoneal administration at the doses< = 0.77-0.90 mM/kg; Inactive. Format: functional, organism-based.
In series [11] the test system is Mus musculus. Briefly: Compound was evaluated for the dose required for protection against MES-induced seizures after 4 hours of intraperitoneal administration at the doses< = 0.77-0.90 mM/kg; Inactive. Format: functional, organism-based.

In general, half-life refers to the time needed for the level to fall by half in the phase considered. Low readings indicate fast loss, high ones slow loss.

In the case of `Cc1cccc(C2(c3cccc(C(F)(F)F)c3)NC(=O)NC2=O)c1` (stereo in doubt; 9), the outcome in the series on Mus musculus [1] and in the series with Mus musculus [2] was inactive.

With `O=C1NC(=O)C(c2ccccc2)(c2ccccc2)N1` [PHENYTOIN], the values for the dose excreted at 6 h in series [3] and in [6] were 54% and 28%, respectively. For the same compound, in series [4], the half-life is 30 min. For the same compound, the outcome with Mus musculus [5] was inactive. The compound also returned an Activity with Mus musculus [7] of 0.038 mmol/kg. This compound yielded a T1/2 with Mus musculus [8] of 16.5 h.

As for `Cc1ccc(C2(c3cccc(C(F)(F)F)c3)NC(=O)NC2=O)cc1` (stereo in doubt; 7), the outcome in the series on Mus musculus [1] and in the series on Mus musculus [2] was inactive. Further, the Neurotoxicity result in the series on Mus musculus [9] is reported as “No toxicity”.

Take `O=C1NC(=O)C(c2ccccc2)(c2cccc(C(F)(F)F)c2)N1` (centres undefined): the Neurotoxicity result in the series on Mus musculus [9] was “No toxicity”. In addition, in the series with Mus musculus [10], the outcome was inactive. In the series on Mus musculus [7], this compound yielded an Activity of 0.31 mmol/kg.

As for `O=C1NC(=O)C(c2cccc(C(F)(F)F)c2)(c2cccc(C(F)(F)F)c2)N1`, the Neurotoxicity result with Mus musculus [9] was “No toxicity”. This compound also displayed an Activity in the series on Mus musculus [5] of 2.6 mmol/kg. In addition, in the series on Mus musculus [11], the result was inactive.

Take `Cc1cccc(C2(c3ccc(C(F)(F)F)cc3)NC(=O)NC2=O)c1` (centres undefined): the result with Mus musculus [1] and with Mus musculus [2] was inactive. Further, the Neurotoxicity entry with Mus musculus [9] was “No toxicity”.

As to `O=C1NC(=O)C(c2ccccc2)(c2ccc(C(F)(F)F)cc2)N1` (centres undefined), the Neurotoxicity entry in the series on Mus musculus [9] is “No toxicity”. Moreover, the outcome in the series with Mus musculus [10] was inactive. Besides, in the series with Mus musculus [7], the Activity is 0.94 mmol/kg.

`O=C1NC(=O)C(c2ccc(C(F)(F)F)cc2)(c2cccc(C(F)(F)F)c2)N1` (centres undefined): the outcome in the series on Mus musculus [1] and in the series with Mus musculus [2] was inactive. Further, in the series with Mus musculus [9], the Neurotoxicity entry was “No toxicity”.

Regarding `Cc1ccc(C2(c3ccc(C(F)(F)F)cc3)NC(=O)NC2=O)cc1` (centres undefined), the result in the series on Mus musculus [1] and in the series with Mus musculus [2] was inactive. Moreover, the Neurotoxicity result in the series with Mus musculus [9] was “No toxicity”.
